From the supplement of paper PMC13380429

Columns and labels:
Conditions in all cases: 72 h
[1] = system: Vero E6; assay: relative viability EC50 (midpoint between 100% and the lowest measured viability); higher = less toxic
[2] = system: Caco-2; assay: as above
[3] = system: Calu-3; assay: as above
[4] = system: U2OS; assay: as above
[5] = system: HepG2; assay: as above
[6] = system: Vero E6; assay: drug sensitivity score (DSS) for viability; higher = more toxic; extreme values may be limits of the assay
[7] = system: Caco-2; assay: as above
[8] = system: Calu-3; assay: as above
[9] = system: U2OS; assay: as above
[10] = system: HepG2; assay: as above
[11] = system: Vero E6; assay: cell viability relative to DMSO; higher = less toxic
[12] = system: Caco-2; assay: as above
[13] = system: Calu-3; assay: as above
[14] = system: U2OS; assay: as above
[15] = system: HepG2; assay: as above

SMILES | relative viability EC50 [1] | relative viability EC50 [2] | relative viability EC50 [3] | relative viability EC50 [4] | relative viability EC50 [5] | drug sensitivity score [6] | drug sensitivity score [7] | drug sensitivity score [8] | drug sensitivity score [9] | drug sensitivity score [10] | cell viability ([11]; 1 nM) | cell viability ([11]; 10 nM) | cell viability ([11]; 100 nM) | cell viability ([11]; 1000 nM) | cell viability ([11]; 10000 nM) | cell viability ([12]; 1 nM) | cell viability ([12]; 10 nM) | cell viability ([12]; 100 nM) | cell viability ([12]; 1000 nM) | cell viability ([12]; 10000 nM) | cell viability ([13]; 1 nM) | cell viability ([13]; 10 nM) | cell viability ([13]; 100 nM) | cell viability ([13]; 1000 nM) | cell viability ([13]; 10000 nM) | cell viability ([14]; 1 nM) | cell viability ([14]; 10 nM) | cell viability ([14]; 100 nM) | cell viability ([14]; 1000 nM) | cell viability ([14]; 10000 nM) | cell viability ([15]; 1 nM) | cell viability ([15]; 10 nM) | cell viability ([15]; 100 nM) | cell viability ([15]; 1000 nM) | cell viability ([15]; 10000 nM)
CC(C)C[C@@H](N)C1(c2ccc(Cl)cc2)CCC1 | > 10 µM | > 10 µM | > 10 µM | > 10 µM | > 10 µM | 0 | 0 | 0 | 0 | 0 | 106% | 101% | 100% | 98.8% | 105% | 101% | 103% | 108% | 96% | 90.3% | 96% | 104% | 109% | 89.9% | 102% | 98.9% | 98.3% | 94.2% | 99% | 94.1% | 104% | 99.9% | 110% | 103% | 104%
CC1(C)C(/C=C/C=C/C=C/C=C2\N(CCCCS(=O)(=O)O)c3ccc4ccccc4c3C2(C)C)=[N+](CCCCS(=O)(=O)[O-])c2ccc3ccccc3c21 [indocyanine-green] | > 10 µM | > 10 µM | > 10 µM | > 10 µM | > 10 µM | 0 | 0.4 | 0 | 0 | 0 | 96.5% | 99.4% | 102% | 101% | 94.1% | 98.2% | 87.1% | 105% | 94.8% | 86.9% | 98.6% | 108% | 91.6% | 96% | 88.3% | 105% | 101% | 97.4% | 99.1% | 95.4% | 93.1% | 89.4% | 106% | 94.9% | 94.5%
CN(CCOP(=O)(O)O)C(=N)N [creatinol-phosphate] | > 10 µM | > 10 µM | > 10 µM | > 10 µM | > 10 µM | 0 | 0 | 0 | 0 | 0 | 103% | 97.8% | 98.4% | 104% | 97.8% | 102% | 99.5% | 93.6% | 101% | 90.7% | 104% | 94.2% | 105% | 92.8% | 98.5% | 92.5% | 95.6% | 94.7% | 93.3% | 93.4% | 88.7% | 94.6% | 101% | 105% | 92.4%
C[C@H]1COC2=C1C(=O)C(=O)c1c2ccc2c1CCCC2(C)C [cryptotanshinone] | > 10 µM | > 10 µM | > 10 µM | > 10 µM | > 10 µM | 0 | 0.1 | 0 | 0 | 0 | 95% | 102% | 103% | 98.5% | 100% | 97.2% | 93% | 98.1% | 102% | 85.4% | 111% | 111% | 99.1% | 107% | 108% | 101% | 103% | 100% | 101% | 94.4% | 97.3% | 93.3% | 97.2% | 98.9% | 98%
CC(C)(CO)Cc1cc(C(C)(C)C)c(O)c(C(C)(C)C)c1 [CGP-7930] | > 10 µM | > 10 µM | > 10 µM | > 10 µM | > 10 µM | 0 | 0 | 0 | 0 | 0 | 108% | 109% | 95.6% | 108% | 102% | 96.8% | 98.5% | 101% | 99.7% | 96% | 93.6% | 99.2% | 98.3% | 105% | 102% | 98.2% | 101% | 103% | 101% | 104% | 109% | 107% | 91.1% | 108% | 101%
O=C(O)CCNc1cc(N2CCc3ccccc3CC2)nc(-c2ccccn2)n1 [GSK-J1] | > 10 µM | > 10 µM | > 10 µM | > 10 µM | > 10 µM | 0 | 0 | 0 | 0 | 0 | 102% | 94.8% | 96.2% | 95.2% | 102% | 91.6% | 92.4% | 100% | 99.7% | 104% | 97.5% | 93.3% | 97.9% | 104% | 111% | 90.4% | 100% | 91.9% | 98.6% | 102% | 109% | 89.9% | 113% | 101% | 91.3%
CC[C@H](NC(=O)c1c(C)c(-c2ccccc2)nc2ccccc12)c1ccccc1 | > 10 µM | > 10 µM | > 10 µM | > 10 µM | > 10 µM | 0 | 0 | 0.2 | 0 | 0 | 103% | 109% | 102% | 103% | 96.7% | 106% | 98.4% | 101% | 103% | 91.2% | 95.8% | 95.2% | 100% | 96.7% | 87.7% | 104% | 101% | 101% | 98.7% | 102% | 99% | 108% | 95.4% | 102% | 93.4%
